A word on the IC50: it is the point on the concentration scale where inhibition reaches its midpoint. Lower therefore signals greater potency.

The nature of the test: Biological Assay: Mutant IDH1 R132H Biochemical Assay mIDH1 catalyzes the NADPH-dependent reduction of alpha-ketoglutarate (a-KG) to (2R)-2-hydroxyglutarate (2-HG). NADPH consumption was measured by luminescent readout.The biochemical reactions were performed at 32° C. in 384-well plates using a reaction volume of 41 μL and the following assay buffer conditions: 50 mM Tris pH 7.5, 100 mM NaCl, 20 mM MgCl2, 0.05% BSA, 0.01% Brij, 1 μM NADPH, and 250 μM α-KG. The IDH1 R132H enzyme was used in a final concentration of 1.5 nM. Test compounds were used in a concentration range between 0.002 and 10 μM. The final DMSO concentration was 2.4%.The reaction was incubated for 30 minutes, then 40 μL of detection mix (0.75 μg/ml Luciferase, 0.02 U/ml Oxidoreductase, 4 μg/mL FMN, 2 μL/ml decanal/ethanol, 50 mM Tris pH 7.5, 0.5% Glycerin, 0.01% Tween-20, 0.05% BSA) was added. Luminescence was measured on a luminescent reader (10 seconds measuring time, 1 second integration period, 30% sensitivity). The decrease in luminescence is proportional to mIDH1 activity. IC50 values are determined by interpolation from plots of relative luminescence versus inhibitor concentration.

In turn, `COC(=O)c1ccc2c(c1)nc(Nc1ccc(OC(F)(F)F)cc1)n2[C@@H]1C[C@H](C)CC[C@H]1C(C)C` displayed an IC50 of 38 nM.

(Values after ChEMBL document CHEMBL5727242, “N-Methylbenzimidazoles as mIDH1 inhibitors” (2019).)
